Data set [1] in a line: (§1) Permeability from apical to basolateral side of human Caco2 cells. It is filed as ADME, cell-based, Caco-2. To be noted: Caco-2, read-out: permeability. (In general: Caco-2 cells form a polarised layer with tight junctions and transporters.)
The nature of data set [2]: Cmax in Sprague-Dawley rat at 10 mg/kg, po. It is filed as ADME, organism-based. Further details: dose 10 mg/kg, route oral. As to conditions: in vivo.
Data set [3] in a line: AUC in Sprague-Dawley rat at 10 mg/kg, po. It is filed as ADME, organism-based. Further details: dose 10 mg/kg, route oral. As to conditions: plasma.
Data set [4] is described as follows: Mean residence time in Sprague-Dawley rat at 10 mg/kg, po. It is filed as ADME, organism-based. Also on record: dose 10 mg/kg, route oral. As to conditions: in vivo.
Data set [5] has as its system Caco-2. Described as §1. To be noted: caco-2, BLD = below limit of detection. It is filed as ADME, cell-based.

One may read the Cmax as the maximum level reached in the sampled fluid or tissue. As usually defined, the AUC is the area under the concentration-time curve, a measure of exposure. A low value points to less exposure. As a reminder, the MRT is the average time that molecules of a dose stay in the body. With `Cn1c(-c2ccccn2)c(C2CCCCC2)c2ccc(C(=O)NC(C)(C)C(=O)Nc3ccc(/C=C/C(=O)O)cc3)cc21`, in data set [1], the Papp A→B turned out to be 16 ×10⁻⁶ cm/s. Further, the peak level in data set [2] (Cmax) was 1230 nM. Further, in data set [3], the AUC was determined as 0.87 µM·h. In data set [4], this molecule gave a mean residence time (MRT) of 0.5 h.
As to `Cn1c(-c2ccoc2)c(C2CCCCC2)c2ccc(C(=O)NC(C)(C)C(=O)Nc3ccc(/C=C/C(=O)O)cc3)cc21`, the Papp A→B in data set [1] was determined as 6 ×10⁻⁶ cm/s.
For `Cn1c(-c2nccs2)c(C2CCCCC2)c2ccc(C(=O)NC(C)(C)C(=O)Nc3ccc(/C=C/C(=O)O)cc3)cc21`, the Papp A→B in data set [1] came out at 8.5 ×10⁻⁶ cm/s.
Still for that read-out and setting: in the case of `Cn1c(-c2cnco2)c(C2CCCCC2)c2ccc(C(=O)NC(C)(C)C(=O)Nc3ccc(/C=C/C(=O)O)cc3)cc21` it was 5 ×10⁻⁶ cm/s.
In the case of `Cn1c(-c2csc(-c3cccnc3)n2)c(C2CCCCC2)c2ccc(C(=O)NC(C)(C)C(=O)Nc3ccc(/C=C/C(=O)O)cc3)cc21`, the Papp A→B in data set [1] worked out at 0.2 ×10⁻⁶ cm/s.
Turning to `Cn1c(-c2ccc3ncccc3c2)c(C2CCCCC2)c2ccc(C(=O)NC(C)(C)C(=O)Nc3ccc(/C=C/C(=O)O)cc3)cc21`, the permeability result in data set [5] is “BLD”.
For `Cn1c(-c2cccc3cccnc23)c(C2CCCCC2)c2ccc(C(=O)NC(C)(C)C(=O)Nc3ccc(/C=C/C(=O)O)cc3)cc21`, the Papp A→B in data set [1] worked out at 3.4 ×10⁻⁶ cm/s.
Consider `Cn1c(-c2cccnc2)c(C2CCCCC2)c2ccc(C(=O)NC(C)(C)C(=O)Nc3ccc(/C=C/C(=O)O)cc3)cc21`, for which the Papp A→B in data set [1] amounted to 9.4 ×10⁻⁶ cm/s.
Same read-out and setting: in the case of `Cn1c(-c2ccncc2)c(C2CCCCC2)c2ccc(C(=O)NC(C)(C)C(=O)Nc3ccc(/C=C/C(=O)O)cc3)cc21` it was 0.3 ×10⁻⁶ cm/s; in that of `Cc1cccc(-c2c(C3CCCCC3)c3ccc(C(=O)NC(C)(C)C(=O)Nc4ccc(/C=C/C(=O)O)cc4)cc3n2C)n1`, 6.9 ×10⁻⁶ cm/s.
Consider `Cc1ccc(-c2c(C3CCCCC3)c3ccc(C(=O)NC(C)(C)C(=O)Nc4ccc(/C=C/C(=O)O)cc4)cc3n2C)nc1`, for which, in data set [1], the Papp A→B is 16.4 ×10⁻⁶ cm/s.
With `Cc1ccc(-c2c(C3CCCCC3)c3ccc(C(=O)NC(C)(C)C(=O)Nc4ccc(/C=C/C(=O)O)cc4)cc3n2C)cn1`, in data set [1], the Papp A→B amounted to 2.6 ×10⁻⁶ cm/s.
On to `Cn1c(-c2cccc(N)n2)c(C2CCCCC2)c2ccc(C(=O)NC(C)(C)C(=O)Nc3ccc(/C=C/C(=O)O)cc3)cc21`, for which, in data set [1], the Papp A→B came to 1.5 ×10⁻⁶ cm/s. In addition, the peak level in data set [2] (Cmax) was 990 nM. The exposure (AUC) in data set [3] was 1.18 µM·h. This molecule displayed an MRT in data set [4] of 3.4 h.
On to `COc1cccc(-c2c(C3CCCCC3)c3ccc(C(=O)NC(C)(C)C(=O)Nc4ccc(/C=C/C(=O)O)cc4)cc3n2C)n1`, for which the Papp A→B in data set [1] came out at 24 ×10⁻⁶ cm/s.
For the molecule `Cn1c(-c2cncnc2)c(C2CCCCC2)c2ccc(C(=O)NC(C)(C)C(=O)Nc3ccc(/C=C/C(=O)O)cc3)cc21`, the Papp A→B in data set [1] amounted to 3.3 ×10⁻⁶ cm/s.
As to `Cn1c(-c2cnccn2)c(C2CCCCC2)c2ccc(C(=O)NC(C)(C)C(=O)Nc3ccc(/C=C/C(=O)O)cc3)cc21`, the Papp A→B in data set [1] turned out to be 7 ×10⁻⁶ cm/s.

For the origin of these results see ChEMBL document CHEMBL1777795, “From benzimidazole to indole-5-carboxamide Thumb Pocket I inhibitors of HCV NS5B polymerase. Part 1: indole C-2 SAR and discovery of diamide derivatives with nanomolar potency in cell-based subgenomic replicons” (Bioorg Med Chem Lett, 2011).
